The results in this text go back to US5866087A, “Calixarene derivatives, their preparation process and their use for extracting actinides and lanthanides” (priority 1995, dated 1999).

The nature of test [1]: liquid-liquid extraction from aqueous nitric solution, distribution coefficient D. As to conditions: aqueous HNO3, NaNO3 4 mole/l; for D(distribution coefficient) 152-Eu: pH ≈0, 1 hour contacting; for D(distribution coefficient) 237-Np / D(distribution coefficient) 239-Pu / D(distribution coefficient) 241-Am: 1 hour. Type of test: physicochemical. How it is done: In these examples, an evaluation takes place of the effectiveness of the calixarenes of table 1 for extracting plutonium, neptunium and americium, as well as europium (simulating all the trivalent lanthanides) of an aqueous solution containing one of these elements. The composition of the aqueous solution is as follows:
[…] Contacting takes place in a 20 ml polypropylene tube, which undergoes stirring. After 1 hour of contacting, the two phases are allowed to settle and the activity of each phase is counted by liquid scintillation or α and γ spectrometries.
The distribution coefficient D is then determined and this corresponds to the ratio of the activity of actinide in the organic phase to the activity of actinide in the aqueous phase.

Test [2] can be described thus: supported liquid membrane transport into aqueous reextraction solution. It is filed as physicochemical. The text has this: These examples use the second embodiment of the process according to the invention for extracting europium, neptunium, plutonium and americium from aqueous solutions having the same compositions as those used in examples 7 to 16. These examples use the device shown in the attached drawing.
This device comprises an enclosure 1 subdivided into two compartents 3 and 5 by a supported liquid membrane 7, constituted by a microporous polypropylene membrane marketed under the name CELGARD 2500 and having the following characteristics:
membrane thickness: 0.025 mm.
The pores of this membrane are filled with an organic phase constituted by nitrophenylhexyl ether incorporating 0.001 or 0.0001M of calixarene.
Compartment 3 contains 50 ml of aqueous solution (NaNO3 :4 mole/l, HNO3 : 1mole/l with Eu, Np, Pu, Am); and compartment 5 contains 50ml of an aqueous reextraction solution constituted by an aqueous solution with 1 mole/l of methylene diphosphonic acid.
The two solutions are stirred and the initial activity of the solution of compartment 3 is determined, followed by the activity of the aqueous reextraction solution of compartment 5 by liquid α spectrometry and the operation is continued for one day. From it is deduced the percentage of neptunium, plutonium, americium and europium recovered in the aqueous reextraction solution after 6 and 24 h.
The calixarenes used, the permeability (in cm h^-1) of the membrane to Np and Pu, as well as the %, at the end of 6 and 24 h,of Eu, Am, Np and Pu recovered are given in table 3.

[3] abbreviates: calixarene 0.001M in nitrophenyloctylether.
[4] abbreviates: calixarene 0.001M in nitrophenyloctylether, * = precipitation.
The mark [5] stands for this setting: 6 h, supported liquid membrane, 0.001 or 0.0001M calixarene (CMPO 10^-2 M).
The mark [6] stands for this setting: 24 h, supported liquid membrane, 0.001 or 0.0001M calixarene (CMPO 10^-2 M).
[7] abbreviates: CELGARD 2500 membrane, nitrophenylhexyl ether with 0.001 or 0.0001M calixarene (CMPO 10^-2 M), reextraction 1 mole/l methylene diphosphonic acid.
Where [8] appears, read: calixarene 0.0001M in nitrophenyloctylether, * = precipitation.

Some results are limits rather than exact numbers.

`CCCCCCCCCCCCCCOc1c2cc(NC(=O)CP(=O)(c3ccccc3)c3ccccc3)cc1Cc1cc(NC(=O)CP(=O)(c3ccccc3)c3ccccc3)cc(c1OCCCCCCCCCCCCCC)Cc1cc(NC(=O)CP(=O)(c3ccccc3)c3ccccc3)cc(c1OCCCCCCCCCCCCCC)Cc1cc(NC(=O)CP(=O)(c3ccccc3)c3ccccc3)cc(c1OCCCCCCCCCCCCCC)C2` [Compound 3, tetra-O-tetradecyl tetrakis (diphenyl-phosphinoxidoacetamido)calix[4]arene]: the “D(distribution coefficient) 152-Eu” value in test [1] (setting [3]) is reported as greater than 100. Besides, in test [1] (setting [4]), the “D(distribution coefficient) 237-Np” value came out at 1.8, the “D(distribution coefficient) 239-Pu” value is 90 and the “D(distribution coefficient) 241-Am” value was greater than 100. In test [2] (setting [5]), the “Percentage transported in 6 h. 152 Eu” value was 90%, the “Percentage transported in 6 h. 237 Np” value is on record as 54%, the “Percentage transported in 6 h. 239 Pu” value was found to be 84% and the “Percentage transported in 6 h. 241 Am” value amounted to 98%. In test [2] (setting [6]), the “Percentage of 239Pu transported in 24 h” value came out at 88%, the “Percentage transported in 24 h. 152 Eu” value is 98%, the “Percentage transported in 24 h. 237 Np” value was 62% and the “Percentage transported in 24 h. 241 Am” value worked out at 100%. In addition, in test [2] (setting [7]), the “Permeability (cm/h) 152 Eu” value is 2.8 cm/h, the “Permeability (cm/h) 237 Np” value is listed as 1.3 cm/h, the “Permeability (cm/h) 239 Pu” value is reported as 2.95 cm/h and the “Permeability (cm/h) 241 Am” value is recorded as 5.3 cm/h.
Regarding `CCCCCCCCCCCCCCCCOc1c2cc(NC(=O)CP(=O)(c3ccccc3)c3ccccc3)cc1Cc1cc(NC(=O)CP(=O)(c3ccccc3)c3ccccc3)cc(c1OCCCCCCCCCCCCCCCC)Cc1cc(NC(=O)CP(=O)(c3ccccc3)c3ccccc3)cc(c1OCCCCCCCCCCCCCCCC)Cc1cc(NC(=O)CP(=O)(c3ccccc3)c3ccccc3)cc(c1OCCCCCCCCCCCCCCCC)C2` [Compound 4, tetra-O-hexadecyl tetrakis(diphenyl-phosphinaxidoacetamido)calix[4]arene], in test [1] (setting [8]), the “D(distribution coefficient) 237-Np” value amounted to 1.1, the “D(distribution coefficient) 239-Pu” value is given as 27 and the “D(distribution coefficient) 241-Am” value stood at 27. Also, in test [2] (setting [5]), the “Percentage transported in 6 h. 237 Np” value is 21%, the “Percentage transported in 6 h. 239 Pu” value turned out to be 54% and the “Percentage transported in 6 h. 241 Am” value came out at 3%. For the same molecule, in test [2] (setting [7]), the “Permeability (cm/h) 237 Np” value worked out at 0.46 cm/h, the “Permeability (cm/h) 239 Pu” value is 1.4 cm/h and the “Permeability (cm/h) 241 Am” value was 0.08 cm/h.
In the case of `CCCCCCCCCCOc1c2cc(NC(=O)CP(=O)(c3ccccc3)c3ccccc3)cc1Cc1cc(NC(=O)CP(=O)(c3ccccc3)c3ccccc3)cc(c1OC)Cc1cc(NC(=O)CP(=O)(c3ccccc3)c3ccccc3)cc(c1OCCCCCCCCCC)Cc1cc(NC(=O)CP(=O)(c3ccccc3)c3ccccc3)cc(c1OC)C2` [Compound 6, 25, 27 didecyloxy-26,28-dimethoxy-5,11, 17,23-(diphenylphosphinoxido-acetamido) calix[4]arene], the “D(distribution coefficient) 152-Eu” value in test [1] (setting [3]) was greater than 100. In test [1] (setting [4]), the “D(distribution coefficient) 237-Np” value is on record as 3, the “D(distribution coefficient) 239-Pu” value was 130 and the “D(distribution coefficient) 241-Am” value amounted to 240. Also, in test [2] (setting [5]), the “Percentage transported in 6 h. 237 Np” value amounted to 49.4%, the “Percentage transported in 6 h. 239 Pu” value stood at 97.1% and the “Percentage transported in 6 h. 241 Am” value was found to be 94.2%. Moreover, in test [2] (setting [6]), the “Percentage of 239Pu transported in 24 h” value came out at 100%, the “Percentage transported in 24 h. 237 Np” value was 68.3% and the “Percentage transported in 24 h. 241 Am” value came out at 94.9%. Moreover, in test [2] (setting [7]), the “Permeability (cm/h) 237 Np” value is given as 1.6 cm/h, the “Permeability (cm/h) 239 Pu” value is 6.4 cm/h and the “Permeability (cm/h) 241 Am” value is recorded as 2.9 cm/h.
`CCCCCCCCCCCCCCCCCCOc1c2cc(NC(=O)CP(=O)(c3ccccc3)c3ccccc3)cc1Cc1cc(NC(=O)CP(=O)(c3ccccc3)c3ccccc3)cc(c1OC)Cc1cc(NC(=O)CP(=O)(c3ccccc3)c3ccccc3)cc(c1OCCCCCCCCCCCCCCCCCC)Cc1cc(NC(=O)CP(=O)(c3ccccc3)c3ccccc3)cc(c1OC)C2` [Compound 7]: in test [1] (setting [3]), the “D(distribution coefficient) 152-Eu” value is recorded as greater than 100. Also, in test [1] (setting [4]), the “D(distribution coefficient) 237-Np” value was found to be 3, the “D(distribution coefficient) 239-Pu” value worked out at 170 and the “D(distribution coefficient) 241-Am” value is recorded as 250. In addition, in test [2] (setting [5]), the “Percentage transported in 6 h. 237 Np” value amounted to 42.7%, the “Percentage transported in 6 h. 239 Pu” value turned out to be 99.7% and the “Percentage transported in 6 h. 241 Am” value is 92.6%. In test [2] (setting [6]), the “Percentage of 239Pu transported in 24 h” value is recorded as 100%, the “Percentage transported in 24 h. 237 Np” value came out at 59.4% and the “Percentage transported in 24 h. 241 Am” value is 99.3%. Also, in test [2] (setting [7]), the “Permeability (cm/h) 237 Np” value amounted to 1.3 cm/h, the “Permeability (cm/h) 239 Pu” value worked out at 7 cm/h and the “Permeability (cm/h) 241 Am” value is listed as 3.2 cm/h.
For the molecule `CCCCCOc1c2cc(NC(=O)CP(=O)(c3ccccc3)c3ccccc3)cc1Cc1cc(NC(=O)CP(=O)(c3ccccc3)c3ccccc3)cc(c1OCCCCC)Cc1cc(NC(=O)CP(=O)(c3ccccc3)c3ccccc3)cc(c1OCCCCC)Cc1cc(NC(=O)CP(=O)(c3ccccc3)c3ccccc3)cc(c1OCCCCC)C2` [Compound 8], in test [1] (setting [3]), the “D(distribution coefficient) 152-Eu” value was greater than 100. For the same molecule, in test [1] (setting [4]), the “D(distribution coefficient) 237-Np” value turned out to be 2, the “D(distribution coefficient) 239-Pu” value is 100 and the “D(distribution coefficient) 241-Am” value came to 250. Moreover, in test [2] (setting [5]), the “Percentage transported in 6 h. 237 Np” value was 8.5%, the “Percentage transported in 6 h. 239 Pu” value is 79.6% and the “Percentage transported in 6 h. 241 Am” value turned out to be 99%. Besides, in test [2] (setting [6]), the “Percentage of 239Pu transported in 24 h” value is reported as 80%, the “Percentage transported in 24 h. 237 Np” value is on record as 14.5% and the “Percentage transported in 24 h. 241 Am” value is 100%. In test [2] (setting [7]), the “Permeability (cm/h) 237 Np” value is listed as less than 0.2 cm/h, the “Permeability (cm/h) 239 Pu” value is reported as 3.6 cm/h and the “Permeability (cm/h) 241 Am” value turned out to be 3.4 cm/h.
As to `CCCCCCCCOc1c2cc(NC(=O)CP(=O)(c3ccccc3)c3ccccc3)cc1Cc1cc(NC(=O)CP(=O)(c3ccccc3)c3ccccc3)cc(c1OC)Cc1cc(NC(=O)CP(=O)(c3ccccc3)c3ccccc3)cc(c1OCCCCCCCC)Cc1cc(NC(=O)CP(=O)(c3ccccc3)c3ccccc3)cc(c1OC)C2` [Compound 9], the “D(distribution coefficient) 152-Eu” value in test [1] (setting [3]) is listed as greater than 100. Besides, in test [1] (setting [4]), the “D(distribution coefficient) 237-Np” value worked out at 2, the “D(distribution coefficient) 239-Pu” value was determined as 110 and the “D(distribution coefficient) 241-Am” value is recorded as 280. Further, in test [2] (setting [5]), the “Percentage transported in 6 h. 237 Np” value is 52.4%, the “Percentage transported in 6 h. 239 Pu” value was 84.1% and the “Percentage transported in 6 h. 241 Am” value was found to be 91.3%. Besides, in test [2] (setting [6]), the “Percentage of 239Pu transported in 24 h” value was 86%, the “Percentage transported in 24 h. 237 Np” value was found to be 75.2% and the “Percentage transported in 24 h. 241 Am” value came to 100%. Also, in test [2] (setting [7]), the “Permeability (cm/h) 237 Np” value is given as 1.6 cm/h, the “Permeability (cm/h) 239 Pu” value worked out at 4.2 cm/h and the “Permeability (cm/h) 241 Am” value is 2.9 cm/h.
Turning to `CCCCC(CC)COc1c2cc(NC(=O)CP(=O)(c3ccccc3)c3ccccc3)cc1Cc1cc(NC(=O)CP(=O)(c3ccccc3)c3ccccc3)cc(c1OCC(CC)CCCC)Cc1cc(NC(=O)CP(=O)(c3ccccc3)c3ccccc3)cc(c1OCC(CC)CCCC)Cc1cc(NC(=O)CP(=O)(c3ccccc3)c3ccccc3)cc(c1OCC(CC)CCCC)C2` (stereo not drawn) [Compound 10], in test [1] (calixarene 0.0005M), the “D(distribution coefficient) 152-Eu” value is listed as 1.5, the “D(distribution coefficient) 237-Np” value was found to be 2, the “D(distribution coefficient) 239-Pu” value worked out at 20 and the “D(distribution coefficient) 241-Am” value is recorded as 4.5. Moreover, in test [2] (setting [5]), the “Percentage transported in 6 h. 237 Np” value was 19.8%, the “Percentage transported in 6 h. 239 Pu” value was determined as 53.5% and the “Percentage transported in 6 h. 241 Am” value is 27.8%. Further, in test [2] (setting [6]), the “Percentage of 239Pu transported in 24 h” value was found to be 76.6%, the “Percentage transported in 24 h. 237 Np” value stood at 30.4% and the “Percentage transported in 24 h. 241 Am” value is reported as 62.4%. Besides, in test [2] (setting [7]), the “Permeability (cm/h) 237 Np” value is listed as 0.6 cm/h, the “Permeability (cm/h) 239 Pu” value was 2 cm/h and the “Permeability (cm/h) 241 Am” value is 0.5 cm/h.
